Measurements as given in ChEMBL document CHEMBL3301562, “MMV Box screening against Plasmodium falciparum protein kinases and aminoacyl tRNA synthetases”.

Tests used:
Assay type in all cases: functional
[1] = target: T1, Cdk-related protein kinase 6 (Plasmodium falciparum, UniProt O77239); test: Final concentrations were 1.5 uM ATP, 5 mM MnCl2, and 15 ug/ml PK6 in a buffer of 100 mM Tris-HCl (pH 7.5). 50 ug/mL MBP was provided as the substrate; 10 uM staurosporine was used as a control inhibitor. Incubation time was 3 hours and 40 minutes.The catalytic activity of each kinase was considered proportional to ATP consumed, as determined from measurements of residual [ATP] with the luciferase-based reagent Kinase-Glo (Promega) following incubation. Luminescence (proportional to residual [ATP]) was measured on the plate readers FLx800 (BioTek Instruments, Winooski, VT, USA) and MicroBeta2.
T1 sequence (O77239 whole entry): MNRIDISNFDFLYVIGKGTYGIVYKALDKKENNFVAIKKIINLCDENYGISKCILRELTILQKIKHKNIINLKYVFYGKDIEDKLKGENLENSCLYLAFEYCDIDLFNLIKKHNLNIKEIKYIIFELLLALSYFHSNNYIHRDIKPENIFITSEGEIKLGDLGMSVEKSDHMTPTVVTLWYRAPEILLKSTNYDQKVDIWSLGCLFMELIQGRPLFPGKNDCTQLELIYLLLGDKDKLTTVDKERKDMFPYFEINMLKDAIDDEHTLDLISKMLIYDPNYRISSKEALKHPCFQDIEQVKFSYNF

[2] = target: Calcium-dependent protein kinase 1 (Plasmodium falciparum, UniProt P62344); test: MMV: CDPK1 Protein kinase inhibition assay using recombinant PfCDPK1, syntide 2 peptide substrate, ATP and KinaseGlo to measure % inhibition at 1 uM MMV box compound.
Chain of Calcium-dependent protein kinase 1 (P62344 whole entry): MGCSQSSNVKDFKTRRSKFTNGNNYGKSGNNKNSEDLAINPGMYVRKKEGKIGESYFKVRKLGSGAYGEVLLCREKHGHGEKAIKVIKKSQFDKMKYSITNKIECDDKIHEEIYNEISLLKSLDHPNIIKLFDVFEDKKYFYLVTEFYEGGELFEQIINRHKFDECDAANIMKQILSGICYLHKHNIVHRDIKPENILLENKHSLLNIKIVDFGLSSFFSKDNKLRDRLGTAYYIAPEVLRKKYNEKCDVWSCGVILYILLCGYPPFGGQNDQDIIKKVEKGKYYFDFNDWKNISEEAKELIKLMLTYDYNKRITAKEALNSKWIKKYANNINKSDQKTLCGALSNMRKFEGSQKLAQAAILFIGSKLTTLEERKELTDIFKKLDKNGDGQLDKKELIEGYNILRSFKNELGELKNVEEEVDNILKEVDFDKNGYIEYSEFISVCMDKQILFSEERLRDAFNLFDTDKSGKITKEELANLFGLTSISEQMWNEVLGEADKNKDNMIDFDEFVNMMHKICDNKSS

[3] = target: T2, Putative uncharacterized protein pk7 (Plasmodium falciparum, UniProt O96214); test: Final concentrations were 1 uM ATP, 2 mM DTT, 20 mM MgCl2, 2 mM MnCl2, 0.01% BSA, and 6 ug/ml PK7, in a buffer of 20 mM Tris-HCl (pH 7.5). The enzyme itself was the only substrate present (since autophosphorylation occurs); 100 uM 1NA-PP1 was used as a control inhibitor. Incubation time was 3 hours.
T2 sequence (O96214 whole entry): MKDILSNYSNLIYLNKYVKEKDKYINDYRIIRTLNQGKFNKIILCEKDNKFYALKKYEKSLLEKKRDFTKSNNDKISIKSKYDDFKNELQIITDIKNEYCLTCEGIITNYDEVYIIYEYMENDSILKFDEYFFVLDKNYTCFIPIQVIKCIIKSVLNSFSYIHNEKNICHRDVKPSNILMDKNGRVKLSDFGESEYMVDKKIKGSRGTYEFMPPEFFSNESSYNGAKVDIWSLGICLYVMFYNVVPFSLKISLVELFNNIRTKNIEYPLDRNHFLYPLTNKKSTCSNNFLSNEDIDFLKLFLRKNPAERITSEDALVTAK

[4] = target: T3, Calcium-dependent protein kinase 4 (Plasmodium falciparum (isolate 3D7), UniProt Q8IBS5); test: MMV: CDPK4 Protein kinase inhibition assay using recombinant PfCDPK4, syntide2 peptide substrate, ATP and KinaseGlo to measure % inhibition at 1 uM MMV box compound.
T3 sequence (Q8IBS5 whole entry): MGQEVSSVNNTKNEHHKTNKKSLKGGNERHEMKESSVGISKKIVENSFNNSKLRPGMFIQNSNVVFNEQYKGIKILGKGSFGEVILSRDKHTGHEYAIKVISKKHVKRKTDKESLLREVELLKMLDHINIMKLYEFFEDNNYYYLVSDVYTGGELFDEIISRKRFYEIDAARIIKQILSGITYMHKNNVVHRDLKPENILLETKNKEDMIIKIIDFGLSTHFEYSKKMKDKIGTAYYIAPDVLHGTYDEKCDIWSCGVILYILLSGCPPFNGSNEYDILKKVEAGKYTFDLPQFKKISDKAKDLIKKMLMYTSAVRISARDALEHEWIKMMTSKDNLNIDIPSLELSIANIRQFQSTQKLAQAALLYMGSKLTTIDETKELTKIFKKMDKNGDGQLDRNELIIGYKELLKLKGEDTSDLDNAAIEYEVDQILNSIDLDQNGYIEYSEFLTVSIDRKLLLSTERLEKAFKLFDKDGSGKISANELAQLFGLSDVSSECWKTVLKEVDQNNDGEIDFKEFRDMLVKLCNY

Proline--tRNA ligase = target: T4, Proline--tRNA ligase (Plasmodium falciparum (isolate 3D7), UniProt Q8I5R7); test: MMV: ProRS recombinant Plasmodium falciparum Prolyl-tRNA-synthetase, assay with yeast tRNA, ATP, and proline and 3 uM MMV malaria box compound, assay read out with kinase glo as % inhibition.
T4 sequence (Q8I5R7 whole entry): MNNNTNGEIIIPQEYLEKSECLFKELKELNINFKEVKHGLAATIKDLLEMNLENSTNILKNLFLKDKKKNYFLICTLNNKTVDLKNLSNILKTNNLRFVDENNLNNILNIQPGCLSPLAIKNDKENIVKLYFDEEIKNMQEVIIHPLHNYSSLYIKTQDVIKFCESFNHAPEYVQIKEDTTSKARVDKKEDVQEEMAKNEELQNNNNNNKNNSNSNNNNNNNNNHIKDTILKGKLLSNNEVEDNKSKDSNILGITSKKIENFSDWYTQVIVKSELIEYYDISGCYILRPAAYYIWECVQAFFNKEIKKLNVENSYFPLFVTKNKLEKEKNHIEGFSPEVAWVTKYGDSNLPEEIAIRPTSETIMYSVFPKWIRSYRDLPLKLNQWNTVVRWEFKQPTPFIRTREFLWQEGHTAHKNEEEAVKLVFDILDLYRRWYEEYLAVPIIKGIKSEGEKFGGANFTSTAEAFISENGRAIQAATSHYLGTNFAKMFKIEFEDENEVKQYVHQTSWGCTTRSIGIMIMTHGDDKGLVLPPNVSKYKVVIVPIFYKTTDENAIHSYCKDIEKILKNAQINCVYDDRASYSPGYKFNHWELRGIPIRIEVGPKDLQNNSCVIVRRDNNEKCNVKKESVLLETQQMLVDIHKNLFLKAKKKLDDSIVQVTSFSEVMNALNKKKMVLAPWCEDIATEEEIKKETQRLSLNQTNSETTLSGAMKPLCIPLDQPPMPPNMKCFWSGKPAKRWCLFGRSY

Lysine--tRNA ligase = Lysine--tRNA ligase (Plasmodium falciparum (isolate 3D7), UniProt Q8IDJ8); test: MMV: KRS recombinant Plasmodium falciparum Lysyl-tRNA-synthetase, assay with yeast tRNA, ATP, and lysine and 3 uM MMV malaria box compound, assay read out with kinase glo as % inhibition.
Chain of Lysine--tRNA ligase (Q8IDJ8 whole entry): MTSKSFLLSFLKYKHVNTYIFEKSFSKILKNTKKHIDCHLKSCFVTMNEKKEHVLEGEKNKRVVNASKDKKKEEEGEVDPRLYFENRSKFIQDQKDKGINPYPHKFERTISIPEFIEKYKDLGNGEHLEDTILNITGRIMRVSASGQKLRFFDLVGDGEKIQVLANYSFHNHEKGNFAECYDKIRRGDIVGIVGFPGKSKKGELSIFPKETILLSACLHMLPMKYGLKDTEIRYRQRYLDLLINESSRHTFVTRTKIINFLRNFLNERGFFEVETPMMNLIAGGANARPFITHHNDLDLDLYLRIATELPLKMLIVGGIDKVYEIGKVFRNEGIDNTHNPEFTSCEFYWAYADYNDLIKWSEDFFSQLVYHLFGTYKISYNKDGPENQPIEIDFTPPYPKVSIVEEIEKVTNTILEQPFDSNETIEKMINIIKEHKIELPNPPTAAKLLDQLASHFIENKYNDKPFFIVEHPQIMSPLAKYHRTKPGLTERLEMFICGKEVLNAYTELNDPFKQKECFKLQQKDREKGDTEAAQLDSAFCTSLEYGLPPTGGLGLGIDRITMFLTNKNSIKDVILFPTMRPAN

[5] = target: T5, Mitogen-activated protein kinase (Plasmodium falciparum, UniProt Q25917); test: Final concentrations were 1 uM ATP, 0.5 mM DTT, 1 mM MgCl2, 0.5 mg/mL BSA, and 10 ug/ml MAP2 in a buffer of 50 mM HEPES (pH 7.0). 0.5 mg/mL histone III-S served as the substrate (13); 100 uM AMP-PNP, an ATP analog, was used as a control inhibitor. Incubation time was 4 hours.
T5 sequence (Q25917 whole entry): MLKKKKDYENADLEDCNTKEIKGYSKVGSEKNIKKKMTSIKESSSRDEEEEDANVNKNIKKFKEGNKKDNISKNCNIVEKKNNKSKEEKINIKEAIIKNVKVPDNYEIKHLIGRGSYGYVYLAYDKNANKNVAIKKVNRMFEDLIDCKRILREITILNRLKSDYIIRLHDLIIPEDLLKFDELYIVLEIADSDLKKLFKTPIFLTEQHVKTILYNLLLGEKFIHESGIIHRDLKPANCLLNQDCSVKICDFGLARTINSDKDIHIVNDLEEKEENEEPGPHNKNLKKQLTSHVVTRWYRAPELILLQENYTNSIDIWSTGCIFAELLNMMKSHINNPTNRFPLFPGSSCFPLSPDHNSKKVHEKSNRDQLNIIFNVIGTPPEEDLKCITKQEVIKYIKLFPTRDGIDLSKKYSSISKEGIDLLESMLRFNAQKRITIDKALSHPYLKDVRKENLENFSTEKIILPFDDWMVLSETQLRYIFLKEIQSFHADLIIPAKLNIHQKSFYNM

Compound	IC50 [1] [nM]	IC50 [2] [nM]	IC50 [3] [nM]	IC50 [4] [nM]	IC50 (Proline--tRNA ligase) [nM]	IC50 (Lysine--tRNA ligase) [nM]	IC50 [5] [nM]
CCN1CCCC1CNc1[nH]cnc2c3cc(Cl)ccc3nc1-2 (stereo not given)	> 1000	> 1000	> 1000	> 1000	> 2500	> 2500	> 1000
C[n+]1c2ccccc2nc2ccc(NCCO)cc21	> 1000	> 1000	> 1000	> 1000	> 2500	> 2500	> 1000
Cc1ccc(-c2cc3c(nn2)-c2ccccc2C3=O)cc1	> 1000	> 1000	> 1000	> 1000	> 2500	> 2500	> 1000
COc1ccc(C(=O)Nc2nonc2-c2ccc(OC)c(OC)c2)cc1Cl	> 1000	> 1000	> 1000	> 1000	> 2500	> 2500	> 1000
COc1ccc2c(c1)OC(O)(C(F)(F)C(F)(F)F)CC2=O (stereo not given)	> 1000	> 1000	> 1000	> 1000	> 2500	> 2500	> 1000
CCOc1cc(Cl)c(C(C)NC(=O)c2ccccc2)cc1OCC (stereo not given)	> 1000	> 1000	> 1000	> 1000	> 2500	> 2500	> 1000
c1ccc2cc3c(Nc4ccc(N5CCOCC5)cc4)ccnc3cc2c1	> 1000	> 1000	> 1000	> 1000	> 2500	> 2500	> 1000
CCn1c(SCC(=O)Nc2cc(C(F)(F)F)ccc2Cl)nc2ccccc2c1=O	> 1000	> 1000	> 1000	> 1000	> 2500	> 2500	> 1000
Cc1ccc(Cn2c(N3CCC(C(=O)NCc4cccs4)CC3)nc3ccccc32)cc1	> 1000	> 1000	> 1000	> 1000	> 2500	> 2500	> 1000
O=C(Nc1ccc(Cl)cc1C(=O)Nc1ccncc1)c1ccc(Cl)cc1Cl	> 1000	> 1000	> 1000	> 1000	> 2500	> 2500	> 1000
CCOc1ccc(-c2nonc2NC(=O)c2cccc(C)c2)cc1OCC	> 1000	> 1000	> 1000	> 1000	> 2500	> 2500	> 1000
CCOC(=O)c1ccc2[nH]c(-c3ccccc3)cc(=O)c2c1	> 1000	> 1000	> 1000	> 1000	> 2500	> 2500	> 1000
Cc1ccc(Nc2nc(NCCO)c3ccccc3n2)cc1C	> 1000	> 1000	> 1000	> 1000	> 2500	> 2500	> 1000
CC1CCCCN1CCCNC(=O)c1ccc2c(c1)sc1nc(-c3ccc(F)cc3)cn12 (stereo not given)	> 1000	> 1000	> 1000	> 1000	> 2500	> 2500	> 1000
COc1ccc(NC(=O)C2c3ccccc3C(=O)N(CC(C)C)C2c2cccs2)cc1 (stereo not given)	> 1000	> 1000	> 1000	> 1000	> 2500	> 2500	> 1000
